Each structure is given as a SMILES string.

The assay relates to DENV-R2A. Particulars: ratio of IC50 values.

Take `C=C1NC(=O)C2(C)CSC(=N2)c2csc(n2)C2(C)CSC(=N2)C(C(C)CC)NC(=O)C(C)NC(=O)C(=CC(C)C)COC(=O)c2csc(n2)C(C(C)C)N(C)C(=O)C(COC)NC1=O` (stereo not shown) [Thiamyxin B]: the “IC50 against DENV-R2A lower compared to HCov-229E-luc” value is on record as “fourfold”.

The values above are taken from PMC10100342, “Thiamyxins: Structure and Biosynthesis of Myxobacterial RNA‐Virus Inhibitors” (Angewandte Chemie (International Ed. in English), 2022).
